Reference: PubChem BioAssay (NCI)
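How tested: cells in 96-well plates exposed to compound for 48 hours at five concentrations. Abbreviation: GI50, concentration required for 50% inhibition of growth. TGI is the concentration that stops growth completely.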 Where a SMILES comes first, the peptide text is derived from it. [ ]: non-standard residue; d: D form. The star is where a group is joined. Phe(4-NO2) = N[CH](Cc1ccc([N+](=O)[O-])cc1)C(=O)O; Boc = CC(C)(C)OC(=O)*; OBn = c1ccc(CO*)cc1

Key:
Experiment in all cases: NCI-60 cell line screen, 48 h
786-0 renal = tested on: 786-0 renal
CAKI-1 renal = tested on: CAKI-1 renal
HOP-62 NSCLC = tested on: HOP-62 NSCLC
K-562 leukemia = tested on: K-562 leukemia
KM12 colon = tested on: KM12 colon
MDA-N = tested on: MDA-N
SF-295 CNS = tested on: SF-295 CNS
SF-539 CNS = tested on: SF-539 CNS
SK-MEL-28 melanoma = tested on: SK-MEL-28 melanoma
SW-620 colon = tested on: SW-620 colon
TK-10 renal = tested on: TK-10 renal

| SMILES | TGI (786-0 renal) | TGI (CAKI-1 renal) | TGI (HOP-62 NSCLC) | TGI (K-562 leukemia) | TGI (KM12 colon) | TGI (MDA-N) | TGI (SF-295 CNS) | TGI (SF-539 CNS) | TGI (SK-MEL-28 melanoma) | TGI (SW-620 colon) | TGI (TK-10 renal) | GI50 (CAKI-1 renal) | GI50 (KM12 colon) | GI50 (SF-295 CNS) | GI50 (SF-539 CNS) | GI50 (SK-MEL-28 melanoma) | GI50 (SW-620 colon) | GI50 (TK-10 renal) |
| --- | --- | --- | --- | --- | --- | --- | --- | --- | --- | --- | --- | --- | --- | --- | --- | --- | --- | --- |
| Oc1ccc(Cl)cc1C1=N/C(=N\CN2CCN(C/N=C3/N=C(c4cc(Cl)ccc4O)CC(c4ccccc4)N3)CC2)NC(c2ccccc2)C1 (stereo not given) | 65.4 µM | 97.6 µM | > 100 µM | > 100 µM | > 100 µM | > 100 µM | 91.7 µM | > 100 µM | > 100 µM | > 100 µM | > 100 µM |  |  |  |  |  |  |  |
| CN1CC2=C(OC(N)=C(C#N)C2c2cccs2)/C(=C/c2cccs2)C1 (stereo not given) | > 69.9 µM | > 100 µM | 51.9 µM | > 100 µM | > 78.9 µM | > 47.3 µM | > 100 µM | > 100 µM | > 100 µM | > 100 µM | > 100 µM |  |  |  |  |  |  |  |
| COC(=O)CCC(NC(=O)OC(C)(C)C)C(=O)NC(Cc1ccc([N+](=O)[O-])cc1)C(=O)NCC(=O)OCc1ccccc1 (stereo not given) (Boc-Glu(OMe)-[Phe(4-NO2)]-Gly-OBn; configuration not given here) | > 100 µM | > 100 µM | > 77.6 µM | > 100 µM | > 100 µM | > 100 µM | > 74.1 µM | 63.6 µM | > 100 µM | > 100 µM | > 100 µM |  |  |  |  |  |  |  |
| CCN1CC(C)Cn2c(=O)[nH]c3cc(Br)cc1c32 (stereo not given) | > 100 µM | > 100 µM | > 100 µM | > 100 µM | > 100 µM | 51.8 µM | > 100 µM | > 100 µM | > 100 µM | > 100 µM | > 100 µM |  |  |  |  |  |  |  |
| CC(=O)NCCCCNCCCNC(C)=O | > 100 µM | > 100 µM |  | > 100 µM | > 100 µM | > 100 µM | > 100 µM | > 100 µM | > 100 µM | > 100 µM | > 100 µM |  |  |  |  |  |  |  |
| CC(C)(C)OC(=O)n1cc(C2CNC(=O)C23CCC(=O)N3Cc2ccccc2)c2ccccc21 (stereo not given) | 44.8 µM | > 100 µM | 57.2 µM | > 100 µM | 78.3 µM | 85.5 µM | 35.3 µM | 38.4 µM |  | > 100 µM | 44.4 µM |  |  |  |  |  |  |  |
| S=C1c2ccccc2NC(=NC2CCCC2)C2CSCN12 (stereo not given) | > 100 µM | > 100 µM | > 100 µM | > 100 µM | > 100 µM |  | > 100 µM |  | > 100 µM | > 100 µM | > 100 µM |  |  |  |  |  |  |  |
| COc1ccc(N2C=Nn3c(nc4sc(C)c(C)c4c3=O)C2)cc1 | > 100 µM | > 100 µM | > 100 µM | > 100 µM | > 100 µM | > 100 µM | > 100 µM |  | > 100 µM | > 100 µM | > 100 µM |  |  |  |  |  |  |  |
| CSc1c(C(=O)Nc2ccccc2)c(N)nn1-c1ccccc1 | > 100 µM | > 100 µM |  | > 100 µM | > 100 µM | > 100 µM |  | > 100 µM | > 100 µM | > 100 µM | > 100 µM |  |  |  |  |  |  |  |
| Cn1ccnc1S/C(=C\C=C(C#N)C#N)c1ccc(Cl)cc1 | 5.21 µM | 6.16 µM | 11.1 µM | 3.41 µM | 6.22 µM |  | 11.3 µM | 6.58 µM |  | 11.9 µM | 2.81 µM |  |  |  |  |  |  |  |
| CCC1C(=O)C[C@H]2[C@@H]3C(O)CC4=CC(=O)CC[C@]4(C)[C@H]3CC[C@]12C (stereo not given in full) | > 50 µM | > 50 µM | > 50 µM | > 50 µM | > 50 µM |  | > 50 µM | > 50 µM | > 50 µM | > 50 µM | > 50 µM |  |  |  |  |  |  |  |
| Cn1ccnc1Sc1ccc(/C=N/NC(=O)c2ccccc2O)cc1[N+](=O)[O-] | > 100 µM | > 100 µM | > 100 µM |  | > 100 µM | > 100 µM | > 100 µM | > 100 µM | > 100 µM | > 100 µM | > 100 µM |  |  |  |  |  |  |  |
| CCN(CC)Cc1nc2sc3c(c2c(=O)n1-c1ccccc1)CCCC3 | 32.2 µM | 56.9 µM | 86.7 µM | > 100 µM | > 100 µM | 58 µM | 66.3 µM |  | > 100 µM | 37.3 µM | 30.9 µM |  |  |  |  |  |  |  |
| Brc1ccc(N=NN2CCCCC2)cc1 | > 100 µM | > 100 µM | > 100 µM | > 100 µM | > 100 µM | > 100 µM | > 100 µM | > 100 µM |  | > 100 µM | > 100 µM |  |  |  |  |  |  |  |
| COc1cc(OC)c2c(O)cc(CC(C)O)cc2c1 (stereo not given) | > 100 µM | > 100 µM | > 100 µM | > 100 µM | > 100 µM |  | > 100 µM | > 100 µM | > 100 µM | > 100 µM | > 100 µM |  |  |  |  |  |  |  |
| O=C(CSc1nc2ccccc2[nH]1)Nc1ccc(-c2nc3ccccc3s2)c(Cl)c1 |  | > 100 µM |  |  | 8.1 µM |  | > 100 µM | 3.25 µM | 7.59 µM | > 100 µM | 76.6 µM | 4.17 µM | 2.67 µM | 3.63 µM | 1.7 µM | 2.73 µM | 4.78 µM | 4.67 µM |
| CN(C)C(=S)N/N=C\C=N/NC(=S)N(C)C | > 100 µM | > 100 µM |  | > 100 µM | > 100 µM | > 100 µM | > 32.1 µM | > 100 µM | > 100 µM | > 100 µM | > 100 µM |  |  |  |  |  |  |  |
| O=C(c1ccc(Cl)cc1)c1ccc(OCC(=O)N2CCN(c3ccccc3)CC2)cc1 | > 100 µM | > 100 µM | > 100 µM | > 100 µM | > 100 µM |  | > 100 µM | > 100 µM | > 100 µM | > 100 µM | > 100 µM |  |  |  |  |  |  |  |
| Cc1cn(C2CC(n3cc(Cn4cc(F)c(=O)[nH]c4=O)nn3)C(CO)O2)c(=O)[nH]c1=O (stereo not given) | > 100 µM | > 100 µM | > 100 µM |  | > 100 µM | > 100 µM | > 100 µM | > 100 µM | > 100 µM | > 100 µM | > 100 µM |  |  |  |  |  |  |  |
| CC1(C)OC2OC(COC(=O)C=[N+]=[N-])C3OC(C)(C)OC3C2O1 (stereo not given) | > 100 µM | > 100 µM | > 100 µM | > 100 µM | > 100 µM | > 100 µM | > 100 µM |  | > 100 µM | > 100 µM | > 100 µM |  |  |  |  |  |  |  |
